For data set [1] the following is noted: no reference given; cited from earlier work.
Another data set has as its system MBP-antiABA-scFv. The data set can be described thus: SPR affinity in solution (competitive titration) of test compounds for the scFv. Type of data set: binding, mouse. Particulars: for Cross-reactivity MBP-aABA-scFv: from KA relative to (+)-ABA = 100%; for Affinity in solution, MBP-aABA-scFv, KA / Kd: scFv 25 nM, 1 hour at 25°C; for Kd: read-out: Affinity in solution, MBP-aABA-scFv, KD. How it is done:
All heterogeneous phase (surface) techniques can be subject to artefacts introduced by ligand immobilisation or e.g. biotinylation of the free ligand. […] The equilibrium mixtures (1 hour at 25°C) were injected over an SA chip surface saturated with b-PEG-ABA at high ligand density, and the initial binding rate of free scFv was measured. The concentration of free scFv from each equilibrium mixture was determined from a calibration curve (S6A Fig) and plotted against the concentration of free (+)-ABA. Data points were fitted to the solution affinity model in BIAevaluation (S5B Fig). […] Thus, the kinetics of the fusion protein have been described with confidence. Next these were compared with the characteristics of both cleaved, free scFv and with the parental monoclonal immunoglobulin.
The selectivity of the scFv for (+)-ABA was tested by determining the affinity in solution for structurally or physiologically related compounds. […] The concentration of free scFv in the equilibrium mixtures was determined and plotted against concentration of competitor. Affinity was determined by fitting the data points to a solution affinity model (Fig 4). The KA value was determined for each compound, and then percentage cross-reactivity was calculated by expressing each KA value relative to the KA for (+)-ABA. Values were compared to literature data for the parental monoclonal antibody (Table 3).
Fig 4 Cross-reactivity of the anti-ABA-scFv. […] The concentration of free scFv in the equilibrium mixtures was plotted against the concentration of test compound. The structures of each competitor are shown framed in the same colours as the data in the dose graph. There is no box for the racemic mix. The colour code for each compound is shown on the left of the plot.
Figure S6. Affinity in solution. (a) A calibration curve was generated by injecting known concentrations of free MBP-antiABA-scFv (0.1 nM – 50 nM) over the surface of a SA sensor chip saturated with b -PEG-ABA, plotting the initial binding rate against concentration and fitting the data points to a 4 -parameter equation. (b) MBP- […]
1 nM, 5 nM, 10 nM, 50 nM, 100 nM, 200 nM, 500 nM), and the mixtures incubated to equilibrium (1 hour at 25°C). The concentration of free MBP -antiABA-scFv in the equilibrium mixtures was then determined from the calibration curve. The concentration of free MBP -antiABA-scFv in the equilibrium mixtures was plotted against (+)-ABA concentration and the data points were fitted to a solution affinity […]
(1 picture or pasted object on this page, not shown here)

In a further data set the test system is mAb 15-I-C5. Particulars: cited from earlier work.
Setting [2] is: radiolabel displacement curves, 50% displacement, ref Phytodetek manual m100.2, Agdia Inc.
The mark [3] stands for this setting: radiolabel displacement curves, 50% displacement, ref Walker-Simmons et al., 1991.

The source of these data is PMC4811560, “Kinetic Characterisation of a Single Chain Antibody against the Hormone Abscisic Acid: Comparison with Its Parental Monoclonal” (PLoS ONE, 2016).

The pKa is the pH at which an ionisable group is half protonated. Broadly, the Kd is the concentration at which binding is half-saturated.

Structures are written as SMILES. Like-named read-outs stand apart in the source and are kept apart here. Marks after values point to notes of the source that are not given here.

Turning to `CC1=CC(=O)CC(C)(C)C1(O)/C=C/C(C)=C\C(=O)O` (centres unmarked) [ABA, abscisic acid], the pKa in data set [1] was 4.75.
Take `NCCCCC(N)C(=O)O` (racemic) [D,L-Lysine]: in the data set on MBP-antiABA-scFv, the “Cross-reactivity MBP-aABA-scFv” value is on record as 0.00006%; the “Affinity in solution, MBP-aABA-scFv, KA” value worked out at 163 M⁻¹; the Kd was 6120 µM. Besides, the “Cross-reactivity MBP-aABA-scFv” value in the data set with MBP-antiABA-scFv (listed as lysine) is listed as “lower than 10^−4%”.
Turning to `CC(=C/C(=O)O)/C=C/[C@]1(O)[C@@]2(C)CO[C@]1(C)CC(=O)C2` [Phaseic acid], in the data set with MBP-antiABA-scFv, the “Cross-reactivity MBP-aABA-scFv” value was 0.029%; the “Affinity in solution, MBP-aABA-scFv, KA” value was determined as 88200 M⁻¹; the equilibrium dissociation constant (Kd) was found to be 11.3 µM. The “Cross-reactivity MBP-aABA-scFv” value with MBP-antiABA-scFv (listed as phaseic acid) was found to be 0.03%. In addition, in the data set with MBP-antiABA-scFv (scFv), the “affinity, fold lower than that for (+)-ABA” value is “over 100 fold”. Also, the “Cross-reactivity mAb 15-I-C5” value in the data set on mAb 15-I-C5 (setting [2]) is <0.1 ^c %.
In the case of `CC1=CC(=O)CC(C)(C)[C@@]1(O)/C=C/C(C)=C/C(=O)O` [2-trans-(S)-(+)-ABA], the “Cross-reactivity mAb 15-I-C5” value in the data set with mAb 15-I-C5 (setting [2]) is listed as 0%; with mAb 15-I-C5 (setting [3]) it was 0.98%.
In the case of `CC(C=CC1(O)C2(C)COC1(C)CC(O)C2)=CC(=O)O` (centres unmarked) [Dihydrophaseic acid], in the data set on MBP-antiABA-scFv, the “Cross-reactivity MBP-aABA-scFv” value was found to be 0.156%; the “Affinity in solution, MBP-aABA-scFv, KA” value was determined as 462000 M⁻¹; the Kd amounted to 2.17 µM. In addition, in the data set with MBP-antiABA-scFv (listed as dihydrophaseic acid), the “Cross-reactivity MBP-aABA-scFv” value is on record as 0.16%. Further, in the data set with MBP-antiABA-scFv (scFv), the “affinity, fold lower than that for (+)-ABA” value is listed as “over 100 fold”. Moreover, the “Cross-reactivity mAb 15-I-C5” value in the data set on mAb 15-I-C5 (setting [2]) was <0.1 ^c %.
As for `C=C1C[C@]23C[C@@]1(O)CC[C@H]2[C@@]12C=C[C@H](O)[C@@](C)(C(=O)O1)[C@H]2[C@@H]3C(=O)O` [Gibberellic acid], in the data set on MBP-antiABA-scFv, the “Cross-reactivity MBP-aABA-scFv” value came out at 0.00001%; the “Affinity in solution, MBP-aABA-scFv, KA” value was found to be 30.4 M⁻¹; the dissociation constant (Kd) worked out at 32800 µM. In the data set on MBP-antiABA-scFv (listed as gibberellic acid), the “Cross-reactivity MBP-aABA-scFv” value is reported as “lower than 10^−4%”.
For `O=C(O)c1ccccc1` [Benzoic acid], in the data set on MBP-antiABA-scFv, the “Cross-reactivity MBP-aABA-scFv” value amounted to 0.00003%; the “Affinity in solution, MBP-aABA-scFv, KA” value came out at 91.7 M⁻¹; the Kd worked out at 10900 µM. The “Cross-reactivity MBP-aABA-scFv” value in the data set on MBP-antiABA-scFv (listed as benzoic acid) is “lower than 10^−4%”.
Regarding `CC(C=CC12OC1(C)CC(O)CC2(C)C)=CC=O` (centres unmarked) [Xanthoxin], in the data set with MBP-antiABA-scFv, the “Cross-reactivity MBP-aABA-scFv” value amounted to 0.0002%; the “Affinity in solution, MBP-aABA-scFv, KA” value was found to be 617 M⁻¹; the Kd came to 1620 µM. In the data set with MBP-antiABA-scFv (listed as xanthoxin), the “Cross-reactivity MBP-aABA-scFv” value is listed as “lower than 10^−4%”. Moreover, the “Cross-reactivity mAb 15-I-C5” value in the data set with mAb 15-I-C5 (setting [2]) is 0 ^c %.
Regarding `CC(C=CC1C(C)=CC(=O)CC1(C)C)=CC(=O)O` (mixture of isomers) [2-cis-(R,S)-(±)-1’-deoxy-ABA], in the data set on MBP-antiABA-scFv, the “Cross-reactivity MBP-aABA-scFv” value was determined as 0.309%; the “Affinity in solution, MBP-aABA-scFv, KA” value is 917000 M⁻¹; the Kd came out at 1.09 µM. In the data set with MBP-antiABA-scFv (listed as 1ʹ-deoxy-ABA), the “Cross-reactivity MBP-aABA-scFv” value is 0.3%. The “affinity, fold lower than that for (+)-ABA” value in the data set on MBP-antiABA-scFv (scFv) is on record as “over 100 fold”.
On to `CC1=CC(=O)CC(C)(C)[C@@]1(O)/C=C/C(C)=C\C(=O)O` [2-cis-(S)-(+)-ABA], for which, in the data set with MBP-antiABA-scFv, the “Cross-reactivity MBP-aABA-scFv” value is 100%; the “Affinity in solution, MBP-aABA-scFv, KA” value is 2.96e+08 M⁻¹; the Kd was 0.00337 µM. Besides, in the data set on MBP-antiABA-scFv (scFv), the “affinity relative to the inactive (-)-ABA” value was “three orders of magnitude higher”. Further, the “Cross-reactivity mAb 15-I-C5” value in the data set with mAb 15-I-C5 (reference value, determined by other investigators, no source marked) was 100%.
Regarding `CC(C=CC1(O)C(C)=CC(=O)CC1(C)C)=CC(=O)O` (racemic) [2-cis-(R,S)-(±)-ABA], in the data set with MBP-antiABA-scFv, the “Cross-reactivity MBP-aABA-scFv” value was determined as 44.25%; the “Affinity in solution, MBP-aABA-scFv, KA” value is 1.31e+08 M⁻¹; the dissociation constant (Kd) came to 0.00761 µM. For the same compound, in the data set on MBP-antiABA-scFv (listed as (±)-ABA), the “Cross-reactivity MBP-aABA-scFv” value turned out to be 44.3%. Also, the “Cross-reactivity mAb 15-I-C5” value in the data set on mAb 15-I-C5 (setting [3]) was 49.4 ^d %.
`CC(C)=CCC/C(C)=C/CC/C(C)=C/CO` [All-trans-Farnesol]: in the data set with MBP-antiABA-scFv, the “Cross-reactivity MBP-aABA-scFv” value is reported as 0.00002%; the “Affinity in solution, MBP-aABA-scFv, KA” value is 58.4 M⁻¹; the Kd was 17100 µM. For the same compound, the “Cross-reactivity MBP-aABA-scFv” value in the data set on MBP-antiABA-scFv (listed as farnesol) is listed as “lower than 10^−4%”. In addition, the “Cross-reactivity mAb 15-I-C5” value in the data set on mAb 15-I-C5 (setting [2]) is 0 ^c %.
Regarding `O=C(O)Cc1c[nH]c2ccccc12` [Indole-3-acetic acid], in the data set on MBP-antiABA-scFv, the “Cross-reactivity MBP-aABA-scFv” value is given as 0.00005%; the “Affinity in solution, MBP-aABA-scFv, KA” value was 138 M⁻¹; the Kd worked out at 7230 µM. Moreover, the “Cross-reactivity MBP-aABA-scFv” value in the data set with MBP-antiABA-scFv (listed as auxin) was “lower than 10^−4%”.
